Results: patent US8242159B2, “1,3-dihydro-5-isobenzofurancarbonitrile derivatives and pharmaceutical composition thereof for the treatment of premature ejaculation” (Dong-A Pharmaceutical. Co., Ltd, priority 2007, dated 2012)

System: Male Wistar rats
Experiment: p-PCA-induced ejaculation in anesthetized rats (ejaculation-delaying effect)
Format: in vivo, rat
Conditions: for Ratio: Number of responding animals/total animal number: 50 mg/kg oral in 1% HPMC, p-PCA 5 mg/kg i.p. 80 min later, observed 30 min; for Latency: Time to display the ejaculatory response: 50 mg/kg oral, p-PCA 5 mg/kg i.p., mean ± standard deviation of responding rats
Protocol: The compounds prepared in the above examples were evaluated to determine whether they have an effect of delaying ejaculation. The evaluation was carried out using an animal model according to a method described in Yonezawa et al., Life Sci. 2000, 67(25) p 3031-9. Male Wistar rats weighing 240-260 g were used. Each compound was suspended in 1% HPMC, and then administered orally to each animal. After 60 min, the animals were anesthetized and fixed. 20 min later, para-chloroamphetamine (p-PCA) was intraperitoneally administered in a dose of 5 mg/kg in order to induce ejaculation. […] An ejaculatory response was considered to be elicited when rhythmic contraction of bulbocavernosus muscles and semen discharge occurs. Six or more animals were used for each compound. A Fisher's […] test was performed for the comparison of the proportion of responding rats (ejaculated rats) to determine significance of difference between a treatment group and a vehicle control. The time to reach ejaculation was expressed as mean±standard deviation.
Each test compound was administered at a dose of 50 mg/kg. Ejaculation was elicited in all seven animals of a control group.

In the case of `Cc1ccc(C2(CCn3cccn3)OCc3cc(C#N)ccc32)cc1` (stereo not drawn) [Ex. 32, 1-{2-(pyrazole-1-yl)ethyl}-1-(4-tolyl)-1,3-dihydro-5-isobenzofurancarbonitrile], the “Ratio: Number of responding animals/total animal number” value is reported as 4/9 and the “Latency: Time to display the ejaculatory response” value (“Latency: Time” for short) is reported as 1000 ± 401 s.

`Cc1ccc(C2(CCn3cccn3)OCc3cc(C#N)ccc32)cc1.Cl` (stereo not drawn) [Ex. 33, 1-{2-(pyrazole-1-yl)ethyl}-1-(4-tolyl)-1,3-dihydro-5-isobenzofurancarbonitrile hydrochloride] was tested, and the “Ratio: Number of responding animals/total animal number” value was 3/7 and the “Latency: Time” value was 698 ± 374 s.

In the case of `CN(C)CCCC1(c2ccc(N(C)C)cc2)OCc2cc(C#N)ccc21` (stereo not drawn) [Ex. 34, 1-(4-dimethylaminophenyl)-1-{3-(dimethylamino)propyl}-1,3-dihydro-5-isobenzofurancarbonitrile], the “Ratio: Number of responding animals/total animal number” value is reported as 4/9 and the “Latency: Time” value is reported as 807 ± 304 s.

In the case of `CN(C)CCCC1(c2ccc(N(C)C)cc2)OCc2cc(C#N)ccc21.Cl` (stereo not drawn) [Ex. 36, 1-(4-dimethylaminophenyl)-1-{3-(dimethylamino)propyl}-1,3-dihydro-5-isobenzofurancarbonitrile hydrochloride], the “Ratio: Number of responding animals/total animal number” value is reported as 2/6 and the “Latency: Time” value is reported as 554 ± 77 s.

`CN(C)c1ccc(C2(CCCn3ccnc3)OCc3cc(C#N)ccc32)cc1` (stereo not drawn) [Ex. 37, 1-(4-dimethylaminophenyl)-1-{3-(imidazole-1-yl)propyl}-1,3-dihydro-5-isobenzofurancarbonitrile] was tested, and the “Ratio: Number of responding animals/total animal number” value was 4/7 and the “Latency: Time” value was 950 ± 241 s.

With `CN(C)c1ccc(C2(CCCn3ccnc3)OCc3cc(C#N)ccc32)cc1.Cl` (stereo not drawn) [Ex. 38, 1-(4-dimethylaminophenyl)-1-{3-(imidazole-1-yl)propyl}-1,3-dihydro-5-isobenzofurancarbonitrile hydrochloride] the “Ratio: Number of responding animals/total animal number” value was 4/7 and the “Latency: Time” value was 764 ± 304 s.

With `CN(C)CCCC1(c2cccs2)OCc2cc(C#N)ccc21` (stereo not drawn) [Ex. 39, 1-{3-(dimethylamino)propyl}-1-(2-thienyl)-1,3-dihydro-5-isobenzofurancarbonitrile] the “Ratio: Number of responding animals/total animal number” value was 5/9 and the “Latency: Time” value was 854 ± 287 s.

With `CN(C)CCCC1(c2cccs2)OCc2cc(C#N)ccc21.Cl` (stereo not drawn) [Ex. 41, 1-{3-(dimethylamino)propyl}-1-(2-thienyl)-1,3-dihydro-5-isobenzofurancarbonitrile hydrochloride] the “Ratio: Number of responding animals/total animal number” value was 1/7 and the “Latency: Time” value was 702 s.

In the case of `CN(C)CCC1(c2cccs2)OCc2cc(C#N)ccc21` (stereo not drawn) [Ex. 42, 1-{2-(dimethylamino)ethyl}-1-(2-thienyl)-1,3-dihydro-5-isobenzofurancarbonitrile], the “Ratio: Number of responding animals/total animal number” value is reported as 4/9 and the “Latency: Time” value is reported as 906 ± 275 s.

In the case of `CN(C)CCC1(c2cccs2)OCc2cc(C#N)ccc21.Cl` (stereo not drawn) [Ex. 43, 1-{2-(dimethylamino)ethyl}-1-(2-thienyl)-1,3-dihydro-5-isobenzofurancarbonitrile hydrochloride], the “Ratio: Number of responding animals/total animal number” value is reported as 3/7 and the “Latency: Time” value is reported as 888 ± 275 s.

In the case of `N#Cc1ccc2c(c1)COC2(CCCn1ccnc1)c1cccs1` (stereo not drawn) [Ex. 44, 1-{3-(imidazole-1-yl)propyl}-1-(2-thienyl)-1,3-dihydro-5-isobenzofurancarbonitrile], the “Ratio: Number of responding animals/total animal number” value is reported as 4/7 and the “Latency: Time” value is reported as 904 ± 350 s.

With `Cl.N#Cc1ccc2c(c1)COC2(CCCn1ccnc1)c1cccs1` (stereo not drawn) [Ex. 46, 1-{3-(imidazole-1-yl)propyl}-1-(2-thienyl)-1,3-dihydro-5-isobenzofurancarbonitrile hydrochloride] the “Ratio: Number of responding animals/total animal number” value was 0/7.

For `N#Cc1ccc2c(c1)COC2(CCn1ccnc1)c1cccs1` (stereo not drawn) [Ex. 47, 1-{2-(imidazole-1-yl)ethyl}-1-(2-thienyl)-1,3-dihydro-5-isobenzofurancarbonitrile], the “Ratio: Number of responding animals/total animal number” value was 4/7 and the “Latency: Time” value was 814 ± 278 s.

For `Cl.N#Cc1ccc2c(c1)COC2(CCn1ccnc1)c1cccs1` (stereo not drawn) [Ex. 48, 1-{2-(imidazole-1-yl)ethyl}-1-(2-thienyl)-1,3-dihydro-5-isobenzofurancarbonitrile hydrochloride], the “Ratio: Number of responding animals/total animal number” value was 3/7 and the “Latency: Time” value was 904 ± 321 s.

With `N#Cc1ccc2c(c1)COC2(CCCn1cccn1)c1cccs1` (stereo not drawn) [Ex. 49, 1-{3-(pyrazole-1-yl)propyl}-1-(2-thienyl)-1,3-dihydro-5-isobenzofurancarbonitrile] the “Ratio: Number of responding animals/total animal number” value was 5/9 and the “Latency: Time” value was 807 ± 301 s.

In the case of `Cl.N#Cc1ccc2c(c1)COC2(CCCn1cccn1)c1cccs1` (stereo not drawn) [Ex. 50, 1-{3-(pyrazole-1-yl)propyl}-1-(2-thienyl)-1,3-dihydro-5-isobenzofurancarbonitrile hydrochloride], the “Ratio: Number of responding animals/total animal number” value is reported as 3/7 and the “Latency: Time” value is reported as 979 ± 347 s.

For `N#Cc1ccc2c(c1)COC2(CCn1cccn1)c1cccs1` (stereo not drawn) [Ex. 51, 1-{2-(pyrazole-1-yl)ethyl}-1-(2-thienyl)-1,3-dihydro-5-isobenzofurancarbonitrile], the “Ratio: Number of responding animals/total animal number” value was 4/7 and the “Latency: Time” value was 1042 ± 451 s.

With `Cl.N#Cc1ccc2c(c1)COC2(CCn1cccn1)c1cccs1` (stereo not drawn) [Ex. 52, 1-{2-(pyrazole-1-yl)ethyl}-1-(2-thienyl)-1,3-dihydro-5-isobenzofurancarbonitrile hydrochloride] the “Ratio: Number of responding animals/total animal number” value was 3/7 and the “Latency: Time” value was 869 ± 274 s.

For `N#Cc1ccc2c(c1)COC2(CCCn1ccnc1)c1ccc(F)cc1` (stereo not drawn) [Ex. 53, 1-(4-fluorophenyl)-1-{3-(imidazole-1-yl)propyl}-1,3-dihydro-5-isobenzofurancarbonitrile], the “Ratio: Number of responding animals/total animal number” value was 4/9 and the “Latency: Time” value was 1054 ± 320 s.

In the case of `Cl.N#Cc1ccc2c(c1)COC2(CCCn1ccnc1)c1ccc(F)cc1` (stereo not drawn) [Ex. 54, 1-(4-fluorophenyl)-1-{3-(imidazole-1-yl)propyl}-1,3-dihydro-5-isobenzofurancarbonitrile hydrochloride], the “Ratio: Number of responding animals/total animal number” value is reported as 5/9 and the “Latency: Time” value is reported as 1247 ± 352 s.

For `N#Cc1ccc2c(c1)COC2(CCn1ccnc1)c1ccc(F)cc1` (stereo not drawn) [Ex. 55, 1-(4-fluorophenyl)-1-{2-(imidazole-1-yl)ethyl}-1,3-dihydro-5-isobenzofurancarbonitrile], the “Ratio: Number of responding animals/total animal number” value was 4/7 and the “Latency: Time” value was 1450 ± 671 s.

`Cl.N#Cc1ccc2c(c1)COC2(CCn1ccnc1)c1ccc(F)cc1` (stereo not drawn) [Ex. 56, 1-(4-fluorophenyl)-1-{2-(imidazole-1-yl)ethyl}-1,3-dihydro-5-isobenzofurancarbonitrile hydrochloride] was tested, and the “Ratio: Number of responding animals/total animal number” value was 2/6 and the “Latency: Time” value was 606 ± 130 s.

`N#Cc1ccc2c(c1)COC2(CCCn1cccn1)c1ccc(F)cc1` (stereo not drawn) [Ex. 57, 1-(4-fluorophenyl)-1-{3-(pyrazole-1-yl)propyl}-1,3-dihydro-5-isobenzofurancarbonitrile] was tested, and the “Ratio: Number of responding animals/total animal number” value was 4/9 and the “Latency: Time” value was 951 ± 342 s.
